# Results as given in paper PMC5045712 (Bioorganic & medicinal chemistry, 2016).
# What was measured:
# B. anthracis DHOase [1] = biological target: T1, B. anthracis DHOase (Bacillus anthracis, UniProt Q81WF0); conditions: cited from earlier work
# [2] = biological target: WT-DHOase (B. anthracis DHOase) (Bacillus anthracis, UniProt Q81WF0); type: biochemical
# E. coli DHOase = conditions: cited from earlier work
# B. anthracis DHOase [3] = biological target: T1, B. anthracis DHOase; type: binding; conditions: for KD (equilibrium dissociation constant determined by SPR): 25 °C
# B. anthracis DHOase [4] = biological target: T1, B. anthracis DHOase; type: binding
# T1 sequence (Q81WF0 whole entry, looked up): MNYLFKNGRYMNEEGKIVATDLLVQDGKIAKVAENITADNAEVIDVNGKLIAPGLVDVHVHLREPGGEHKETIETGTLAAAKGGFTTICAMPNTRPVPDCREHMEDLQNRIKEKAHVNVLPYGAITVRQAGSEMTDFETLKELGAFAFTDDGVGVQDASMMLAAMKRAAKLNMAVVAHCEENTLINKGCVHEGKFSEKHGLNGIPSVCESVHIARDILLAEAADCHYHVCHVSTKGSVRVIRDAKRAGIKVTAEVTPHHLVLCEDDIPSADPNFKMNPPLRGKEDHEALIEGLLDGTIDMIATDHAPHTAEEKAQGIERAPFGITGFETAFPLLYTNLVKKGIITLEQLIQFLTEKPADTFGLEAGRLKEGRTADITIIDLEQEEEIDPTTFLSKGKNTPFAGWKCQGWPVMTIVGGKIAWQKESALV
# Chain of WT-DHOase (B. anthracis DHOase) (Q81WF0 whole entry, looked up): as above
smiles,measurement,setting,value
"Nc1c(C(=O)O)[nH]c(=O)[nH]c1=O [5-aminoorotate (AOA), 5-aminoorotate]",inhibition of B. anthracis DHOase,B. anthracis DHOase [1],no inhibition
"O=C(O)c1[nH]c(=O)[nH]c(=O)c1F [5-fluoroorotate (FOA), 5-fluoroorotate]",inhibition of B. anthracis DHOase,B. anthracis DHOase [1],no inhibition
"NC(=O)N[C@@H](CC(=O)O)C(=O)O [Ca-asp, carbamyl-asparate]",Km,[2],112 ± 24 µM
same,kcat,[2],2.1 ± 0.1 s⁻¹
same,Km,E. coli DHOase,1700 µM
same,kcat,E. coli DHOase,160 ± 8 s⁻¹
CCC(=O)Nc1ccc(OC)cc1OC [Compound 4],KD with 1 mM Ca-asp,B. anthracis DHOase [3],remained the same
same,shift in melting temperature (Tm),B. anthracis DHOase [4],shows a shift in melting temperature
COc1ccc2[nH]c3c(c2c1)CCNC3 [Compound 6a],KD with 1 mM Ca-asp,B. anthracis DHOase [3],not affected
same,fold change of KD relative to compound 6,B. anthracis DHOase [3],~ 1.5 fold
Cc1ccc2[nH]c3c(c2c1)CCNC3 [Compound 6b],KD (equilibrium dissociation constant determined by SPR),B. anthracis DHOase [3],completely abolished
COc1ccc2[nH]c(CN)cc2c1 [Compound 6c],KD (equilibrium dissociation constant determined by SPR),B. anthracis DHOase [3],no interaction
CSC1(NC#N)NCCc2c1[nH]c1ccc(F)cc21 (stereo not shown) [Compound 7],KD with 1 mM Ca-asp,B. anthracis DHOase [3],unable to be determined
COc1ccc2[nH]c3c(c2c1)CCNC3(NC#N)SC (stereo not shown) [Compound 7a],fold change of KD relative to compound 6,B. anthracis DHOase [3],18 fold
COc1ccc2[nH]c3c(c2c1)CN(C(C)=O)CC3 [Compound 8],KD (equilibrium dissociation constant determined by SPR),B. anthracis DHOase [3],weaker
"O=C1CC(C(=O)O)NC(=O)N1 (stereo not shown) [DHO, dihydroorotate]",Km,[2],114 ± 16 µM
same,kcat,[2],1.9 ± 0.1 s⁻¹
same,Km,E. coli DHOase,80 µM
same,kcat,E. coli DHOase,100 ± 1.6 s⁻¹
